The values that follow come from patent publication US6544524B2, “Ethyl acetate extract from guignardia used to treat an individual infected by fungi or bacteria” (Fundacao Oswaldo Cruz - FIOCRUZ, priority 2001, dated 2003).

The test system of assay [1] is Escherichia coli (ATCC 25922). Description: bioautographical method on a layer of agar. The conditions noted are these: against E. coli; Mueller-Hinton agar, 37° C., 24 hours, MTT. The format is cell-based. How it is done: (§1) The antimicrobial activity of this compound was detected employing the bioautographical method on a layer of agar (Rahalison,L.; Hamburger, M., Hostettmann, K.; Monod, M.; Frenk, E. Phytochemical Ananlysis.2.199-203.1991). The following micro-organisms were tested: Escherichia coli (ATCC 25922) and Staphylococcus aureus (ATCC 25923). The medium used was the Mueller-Hinton in agar (Oxoid). The cultures grew during the night in nutrient medium broth number 3 (Fluka). For the bioautographic test the cultures were standardised through successive dilutions in 10^5 cells/ml. The plaques were incubated at 37° C. for a period of 24 hours, sprayed with an aqueous solution of Methylthiazolyltetrazolium chloride (MTT)at 0.25% and then incubated for a further two hours at 37° C. The active fractions were detected under the form of white areas of inhibition on a lilac background.

Assay [2] deals with Staphylococcus aureus (ATCC 25923). As to the kind of experiment: bioautographical method on a layer of agar. Format: cell-based. The conditions noted are these: against S. aureus; Mueller-Hinton agar, 37° C., 24 hours, MTT. As for the experimental part:
as §1

Take `CC(C)C1(C(=O)O)OC(=O)/C(=C/c2ccccc2)O1` (centres unmarked) [compound of the invention, (Z)-5-benzylidene-2-isopropyl-4-oxo-1.3-dioxolane-2-carboxyl acid]: the values for the antibacterial activity in assay [1] and in assay [2] were 150 nM and 75 nM, respectively.
